Experimental data: US8329390B2, “Detection of transmembrane potentials using N,N,N′-trialkyl thiobarbituric acid-derived polymethine oxonols” (priority 2004, dated 2012)

Assay: Absorption and fluorescence spectral properties
Type: physicochemical
Excerpt: For all the syntheses, all starting materials and reagents were of the highest purity available (Aldrich Chemical Company, Milwaukee, Wis.) and used without further purification, except where noted. Solvents were HPLC grade (Fisher Scientific, Pittsburgh, Pa.) and were dried over activated molecular sieves. NMR spectra were acquired on a Varian Gemini 200 MHz spectrometer. Absorption and fluorescence spectra were taken respectively on a Cary 50 BIO and Varain Eclipse (Varian, Inc., Palo Alto, Calif.).

CN1C(=O)C(=C/C=C/c2c(O)[nH]c(=S)n(C)c2=O)C(=O)N(C)C1=S [Compound 4]
absorption maximum: 532 nm
emission maximum: 555 nm
ext. coefficient (at 532 nm): 175,000 M^−1 cm^−1
quantum yield (in octanol): > 0.2
